According to ChEMBL document CHEMBL1158521, “Photoactive ligands probing the sweet taste receptor. Design and synthesis of highly potent diazirinyl D-phenylalanine derivatives” (Bioorg Med Chem Lett, 2010):
The source made the active and inactive calls. The calls are words filed in the database; no cut-off is given here.

How the values were obtained:
T1R2/T1R3 (Homo sapiens) [1] = target: T1, T1R2/T1R3 (Homo sapiens) (UniProt Q8TE23+Q7RTX0); test: Activity at human T1R2/T1R3 expressed in HEK293T cells co-expressing Galpha-16-gust44 assessed as F340/F380 ratio at 1.25 mM in presence of T1R2/T1R3 antagonist lactisole; assay type: functional, cell-based; details: HEK-293T
T1R2/T1R3 (Homo sapiens) [2] = target: T1, T1R2/T1R3 (Homo sapiens); test: Activity at human T1R2/T1R3 expressed in HEK293T cells co-expressing Galpha-16-gust44 assessed as F340/F380 ratio at 1.25 mM; assay type: cell-based; details: HEK-293T

`N[C@H](Cc1cccc(C2(C(F)(F)F)N=N2)c1)C(=O)O` was tested, and the Activity (T1R2/T1R3 (Homo sapiens) [1]) was “inactive” and the Activity (T1R2/T1R3 (Homo sapiens) [2]) was “Active”.

For `N[C@H](Cc1ccc(C2(C(F)(F)F)N=N2)cc1)C(=O)O`, the Activity (T1R2/T1R3 (Homo sapiens) [1]) was “inactive” and the Activity (T1R2/T1R3 (Homo sapiens) [2]) was “Active”.
